ChEMBL document CHEMBL1143995, “Virtual screening approaches for the identification of non-lipid autotaxin inhibitors” (Bioorg Med Chem, 2008)

Target: Autotaxin (Homo sapiens) (UniProt Q13822)
Conditions: MDA-MB-435, at 10 µM
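Note: activity read as cleavage of a fluorescent lysophosphatidylcholine analog by autotaxin expressed in the cells.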

Description: Inhibition of human autotaxin expressed in MDA-MB-435 cells assessed as fluorescent lysophosphatidyl choline analog hydrolysis at 10 uM

Row | Compound | inhibition [%]
1 | O=C(O)c1cn(C2CC2)c2cc(N3CCN(C(=S)Nc4ccc5c(c4)OCCO5)CC3)c(F)cc2c1=O | 91
2 | O=C(Cc1ccccc1)Nc1cc(N2C(=O)c3ccc(C(=O)O)cc3C2=O)ccc1Cl | 74
3 | CC(=O)OCCCN1C(=O)c2ccc(C(=O)c3ccc4c(c3)C(=O)N(CCCOC(C)=O)C4=O)cc2C1=O | 58
4 | O=C(O)c1ccc(Oc2ccc(C(=O)c3ccc4c(c3)C(=O)N(c3ccc(O)cc3)C4=O)cc2)cc1 | 62
5 | Cc1ccc(/N=N/c2cc(C)ccc2NC(=O)c2ccc(Oc3ccc(C(=O)Nc4ccc(C)cc4/N=N/c4ccc(C)cc4)cc3)cc2)cc1 | 93
6 | O=C(c1ccc2c(c1)C(=O)N(Cc1ccccc1)C2=O)c1ccc2c(c1)C(=O)N(Cc1ccccc1)C2=O | 67
7 | O=C(O)c1cccc(NC(=O)c2ccc3c(c2)C(=O)N(c2ccc(/N=N/c4ccccc4)cc2)C3=O)c1 | 45
8 | Cc1ccnc(N2C(=O)c3ccc(C(=O)c4ccc5c(c4)C(=O)N(c4cc(C)ccn4)C5=O)cc3C2=O)c1 | 91
9 | COCC(=O)N1N=C(c2cccc(NS(C)(=O)=O)c2)CC1c1cccc([N+](=O)[O-])c1 (stereo not given) | 85
10 | CCn1cc(C(=O)O)c(=O)c2cnc(N3CCN(C(=S)Nc4cc5oc6ccccc6c5cc4OC)CC3)nc21 | 88
11 | O=C(O)c1ccc(Oc2ccc(C(=O)c3ccc4c(c3)C(=O)N(c3cccc5ccccc35)C4=O)cc2)cc1 | 31
12 | O=C(Cc1ccccc1)Nc1cccc(N2C(=O)c3ccc(C(=O)O)cc3C2=O)c1 | 74
13 | CC(C)(C)c1ccc(C(=O)NC(=S)N2CCCC2)cc1 | 76
14 | Cc1ccc(N2C(=O)c3ccc(C(=O)c4ccc5c(c4)C(=O)N(c4ccc(C)cc4C(=O)O)C5=O)cc3C2=O)c(C(=O)O)c1 | 70
15 | Cc1ccc(NC(=S)NC(=O)C2CCCC2)cc1C | 90
16 | O=C(O)c1cccc(NC(=O)c2ccc3c(c2)C(=O)N(c2ccccc2)C3=O)c1 | 79
17 | O=C(O)c1cc(NC(=O)c2ccc3c(c2)C(=O)N(Cc2cccnc2)C3=O)cc(C(=O)O)c1 | 86
18 | O=C(O)c1ccc2c(c1)C(=O)N(c1ccc(Oc3ccc([N+](=O)[O-])cc3)cc1)C2=O | 70
19 | CCCCN1C(=O)c2ccc(C(=O)Nc3cc(C(=O)O)cc(C(=O)O)c3)cc2C1=O | 89
20 | COC(=O)c1ccc(N2C(=O)c3ccc(C(=O)c4ccc5c(c4)C(=O)N(c4ccc(C(=O)OC)cc4)C5=O)cc3C2=O)cc1 | 65
21 | O=C(NC1c2ccccc2Oc2ccccc21)c1ccc(C(=O)NC2c3ccccc3Oc3ccccc32)cc1 | 91
22 | O=C(Nc1ccc(O)c(C(=O)O)c1)c1ccc2c(c1)C(=O)N(CC1CCCO1)C2=O (stereo not given) | 67
23 | Oc1ccc(/N=N/c2ccccc2Br)cc1/C=N/c1ccc(I)cc1 | 87
24 | O=C(c1ccc2c(c1)C(=O)N(N1C(=O)c3ccccc3C1=O)C2=O)c1ccc2c(c1)C(=O)N(N1C(=O)c3ccccc3C1=O)C2=O | 90

Row | Compound | inhibition [%]
25 | CCS(=O)(=O)N1N=C(c2ccc(NS(C)(=O)=O)cc2)CC1c1ccc(OC)cc1 (stereo not given) | 89
26 | O=C(O)c1cc(NC(=O)c2ccc3c(c2)C(=O)N(CC2CCCO2)C3=O)cc(C(=O)O)c1 (stereo not given) | 71
27 | CC(=O)OCCN1C(=O)c2ccc(C(=O)c3ccc4c(c3)C(=O)N(CCOC(C)=O)C4=O)cc2C1=O | 91
28 | CCOc1ccccc1N1C(=O)c2ccc(C(=O)c3ccc4c(c3)C(=O)N(c3ccccc3OCC)C4=O)cc2C1=O | 86
29 | O=C(O)c1ccc2c(c1)C(=O)N(c1cccc(C(=O)Nc3cccc(Cl)c3)c1)C2=O | 48
30 | O=C(O)c1ccc2c(c1)C(=O)N(c1cccc(N3C(=O)c4ccc(C(=O)O)cc4C3=O)n1)C2=O | 89
31 | O=C(O)c1ccc(Oc2ccc(C(=O)c3ccc4c(c3)C(=O)N(c3ccccc3C(=O)O)C4=O)cc2)cc1 | 71
32 | O=C(c1ccc2c(c1)C(=O)N(c1cccc3ccccc13)C2=O)c1ccc2c(c1)C(=O)N(c1cccc3ccccc13)C2=O | 59
33 | Cc1c(N2C(=O)c3ccc(C(=O)c4ccc5c(c4)C(=O)N(c4c(C)n(C)n(-c6ccccc6)c4=O)C5=O)cc3C2=O)c(=O)n(-c2ccccc2)n1C | 67
34 | Cc1ccccc1NC(=O)c1cccc(N2C(=O)c3ccc(C(=O)O)cc3C2=O)c1 | 79
35 | Cc1ccc(/N=N/c2cc(C)ccc2NC(=O)c2ccc3c(c2)C(=O)N(N2C(=O)c4ccccc4C2=O)C3=O)cc1 | 81
36 | CCn1cc(C(=O)O)c(=O)c2cc(F)c(N3CCN(C(=S)NC4CC5CCC4C5)CC3)cc21 (stereo not given) | 83
37 | O=C(NN1C(=O)c2ccc(C(=O)c3ccc4c(c3)C(=O)N(NC(=O)c3ccncc3)C4=O)cc2C1=O)c1ccncc1 | 31
38 | O=S(=O)(O)c1cc(O)c2c(/N=N/c3c(S(=O)(=O)O)cc4cc(S(=O)(=O)O)cc(O)c4c3O)cc(S(=O)(=O)O)cc2c1 | 85
39 | CC(=O)Oc1ccc(N2C(=O)c3ccc(C(=O)c4ccc5c(c4)C(=O)N(c4ccc(OC(C)=O)cc4C(=O)O)C5=O)cc3C2=O)c(C(=O)O)c1 | 53
40 | O=C(O)c1ccc(CN2C(=O)c3ccc(C(=O)c4ccc5c(c4)C(=O)N(Cc4ccc(C(=O)O)cc4)C5=O)cc3C2=O)cc1 | 46
41 | CCCCCCCOC(=O)c1ccc(N2C(=O)c3ccc(C(=O)c4ccc5c(c4)C(=O)N(c4ccc(C(=O)OCCCCCCC)cc4)C5=O)cc3C2=O)cc1 | 58
42 | CC(=O)Nc1ccc(/N=N/c2c(S(=O)(=O)O)cc3cc(NC(=O)Nc4ccc5c(O)c(/N=N/c6ccccc6)c(S(=O)(=O)O)cc5c4)ccc3c2O)cc1 | 71
43 | COc1ccc(N2C(=O)c3ccc(C(=O)Nc4cccc(C(=O)O)c4)cc3C2=O)cc1 | 58
44 | CC(=O)Oc1cccc(N2C(=O)c3ccc(C(=O)c4ccc5c(c4)C(=O)N(c4cccc(OC(C)=O)c4)C5=O)cc3C2=O)c1 | 80
45 | Cc1ccc(C(=O)O)cc1N1C(=O)c2ccc(C(=O)c3ccc4c(c3)C(=O)N(c3cc(C(=O)O)ccc3C)C4=O)cc2C1=O | 83
46 | O=C(O)c1ccc2c(c1)C(=O)N(c1ccc(-c3nnc(-c4ccccc4)o3)cc1)C2=O | 87
47 | Oc1cccc(/C=N/c2ccc(/N=N/c3ccccc3)cc2)c1O | 86
48 | Cc1cc(=O)oc2cc(OCC(=O)NC(CC(=O)O)C(=O)O)ccc12 (stereo not given) | 85

Row | Compound | inhibition [%]
49 | O=C(O)c1ccc(Oc2ccc(C(=O)c3ccc4c(c3)C(=O)N(c3ccc([N+](=O)[O-])cc3)C4=O)cc2)cc1 | 90
50 | CCn1c(SCC(=O)Nc2ccc(C(C)=O)cc2)nc2nc3c(cc2c1=O)CCCC3 | 21
51 | O=C(O)c1ccc2c(c1)C(=O)N(c1ccc(Cl)c(NC(=O)c3ccc4ccccc4c3O)c1)C2=O | 86
52 | Cc1c(NS(=O)(=O)CC23CCC(CC2=O)C3(C)C)c(=O)n(-c2ccccc2)n1C (stereo not given) | 88
53 | O=C(O)c1cccc(NC(=O)c2ccc3c(c2)C(=O)N(Cc2cccnc2)C3=O)c1 | 56
54 | CCn1cc(C(=O)O)c(=O)c2cnc(N3CCN(C(=S)Nc4cc(Cl)cc(Cl)c4)CC3)nc21 | 0
55 | CCn1cc(C(=O)O)c(=O)c2cnc(N3CCN(C(=S)NC(=O)c4c(-c5ccccc5)noc4C)CC3)nc21 | 78
56 | O=C(/C=C/c1cccs1)NC(=S)N1CCCCCC1 | 88
57 | O=C(O)c1ccc2c(c1)C(=O)N(c1cccc(-c3nc4ccccc4c(=O)o3)c1)C2=O | 71
58 | O=C(O)c1cccc(NC(=O)c2ccc3c(c2)C(=O)N(C2CCCCC2)C3=O)c1 | 55
59 | O=C(c1ccc2c(c1)C(=O)N(c1ccccc1-c1ccccc1)C2=O)c1ccc2c(c1)C(=O)N(c1ccccc1-c1ccccc1)C2=O | 91
60 | CCn1cc(C(=O)O)c(=O)c2cnc(N3CCN(C(=S)NC(CC(=O)OC)C(=O)OC)CC3)nc21 (stereo not given) | 62
61 | O=C(O)c1ccc2c(c1)C(=O)N(c1ccc(C(=O)OCC(=O)c3ccccc3)cc1)C2=O | 71
62 | CC(C)C(=O)NC(=S)Nc1ccc(N2CCOCC2)cc1 | 80
63 | O=C(c1ccc2c(c1)C(=O)N(c1ccc(Br)cc1)C2=O)c1ccc2c(c1)C(=O)N(c1ccc(Br)cc1)C2=O | 93
64 | O=C(O)c1cc(C(=O)O)cc(N2C(=O)c3ccc(C(=O)c4ccc5c(c4)C(=O)N(c4cc(C(=O)O)cc(C(=O)O)c4)C5=O)cc3C2=O)c1 | 49
65 | O=C(/C=C/c1cccc(N2C(=O)c3ccc(C(=O)c4cccc([N+](=O)[O-])c4)cc3C2=O)c1)c1ccccc1 | 90
66 | O=C(O)c1cccc(NC(=O)c2ccc3c(c2)C(=O)N(c2nccs2)C3=O)c1 | 71
67 | Cc1cc(=O)oc2c(/C=N/c3ccc(/N=N/c4ccccc4)cc3)c(O)ccc12 | 91
68 | CC(=O)Nc1ccc(N2C(=O)c3ccc(C(=O)c4ccc5c(c4)C(=O)N(c4ccc(NC(C)=O)cc4)C5=O)cc3C2=O)cc1 | 59
69 | O=C(O)c1ccc2c(c1)C(=O)N(c1ccc(/N=N/c3ccccc3)cc1)C2=O | 82
70 | CCCCOC(=O)c1ccccc1N1C(=O)c2ccc(C(=O)c3ccc4c(c3)C(=O)N(c3ccccc3C(=O)OCCCC)C4=O)cc2C1=O | 87
